These results are taken from BindingDB's records for doi:10.1080/14756360600991017 (University of Athens, 2007).

pIC50: −log10 of the molar value.

For the test, the target named is T1, Seed linoleate 13S-lipoxygenase-1 (Glycine max, UniProt P08170).
T1 sequence (P08170 whole entry): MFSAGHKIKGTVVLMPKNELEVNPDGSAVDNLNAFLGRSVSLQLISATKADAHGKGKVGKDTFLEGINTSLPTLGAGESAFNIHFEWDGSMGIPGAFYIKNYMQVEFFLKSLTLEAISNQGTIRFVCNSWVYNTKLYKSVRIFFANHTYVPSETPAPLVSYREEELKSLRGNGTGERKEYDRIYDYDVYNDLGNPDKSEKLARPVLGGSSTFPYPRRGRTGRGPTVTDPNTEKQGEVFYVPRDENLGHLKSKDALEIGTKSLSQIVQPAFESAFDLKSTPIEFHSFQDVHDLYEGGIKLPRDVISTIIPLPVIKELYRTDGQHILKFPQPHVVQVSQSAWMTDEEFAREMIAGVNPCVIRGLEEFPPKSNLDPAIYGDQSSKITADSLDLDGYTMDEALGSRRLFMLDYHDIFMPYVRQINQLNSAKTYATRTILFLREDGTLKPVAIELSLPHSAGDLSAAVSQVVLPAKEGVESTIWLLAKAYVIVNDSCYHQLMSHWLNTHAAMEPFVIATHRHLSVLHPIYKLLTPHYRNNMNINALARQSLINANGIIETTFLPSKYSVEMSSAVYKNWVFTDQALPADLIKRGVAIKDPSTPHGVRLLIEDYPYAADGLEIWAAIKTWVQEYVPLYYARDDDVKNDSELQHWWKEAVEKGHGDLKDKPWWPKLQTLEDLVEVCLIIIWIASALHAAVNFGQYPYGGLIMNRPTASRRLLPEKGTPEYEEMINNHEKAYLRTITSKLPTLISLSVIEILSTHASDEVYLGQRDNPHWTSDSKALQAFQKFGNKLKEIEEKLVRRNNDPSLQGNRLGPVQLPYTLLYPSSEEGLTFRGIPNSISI
The experiment in a line: Inhibition Assay. The settings on record: 25 °C.
Experimental: soybean lipoxygenase and linoleic acid sodium salt were obtained from Sigma Chemical, Co. in St. Louis, MO. Each experiment of the in vitro assay was performed at least in triplicate and the standard deviation of absorbance was less than 10% of the mean.
Take `O=C(O)C[C@H]1CCC(=O)[C@@H]1C/C=C/CCO[C@H]1OC(CO)[C@H](O)C(O)[C@H]1O` (some centres undefined) [12-hydroxy-jasmonic acid 12-O-B-glucoside, 4]: the negative-log IC50 (pIC50) (as a rule, −log10 of the IC50, conventionally taken in molar units) is 3.25.

Compound `O=C(/C=C/c1ccc(O)c2c1C(C(=O)O[C@@H](Cc1ccc(O)c(O)c1)C(=O)O)[C@@H](c1ccc(O)c(O)c1)O2)O[C@H](Cc1ccc(O)c(O)c1)C(=O)O` (some centres undefined) [Lithospermic acid, 3] had a pIC50 of 3.00.

With `O=C(/C=C/c1ccc(O)c(O)c1)O[C@H](Cc1ccc(O)c(O)c1)C(=O)O` [Rosmarinic acid, 2], the pIC50 is 2.94. This pIC50 and that of the compound before are within 0.2 log units of each other.

`CC(C)C1=C[C@H](O)[C@@](C)(O[C@@H]2OC(CO)[C@@H](O)[C@H](O)C2O)CC1` (some centres undefined) [p-menth-3-ene-1,2-diol 1-O-B-glucopyranoside, 5] had a pIC50 of 3.44. This pIC50 lies 0.50 log units higher than the previous one.
